Among the data in US9416141B2 (University of Washington through its Center for …, priority 2012, dated 2016) are Emax and EC50 values, retold here.

Structures are written as SMILES. Where a name gives a salt, the structure may show the parent alone.

The subject of the experiment is hair cells. Kind of experiment: Hair cell toxicity assay in zebrafish (neomycin-induced hair cell death, DASPEI staining of neuromasts). The format is in vivo. Particulars: Danio rerio; for EC50: zebrafish larvae 5-7 dpf, 1 h pre-treatment, then 200 micromolar neomycin + test compound 30 min, read-out: HC50 (concentration that would produce 50% hair cell survival); for Emax at 2.8 µM: maximum observed @ 2.8 μM test compound; for Emax at 25 µM: maximum observed @ 25 μM test compound. The method, boiled down:
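Hair cell survival, as % of untreated controls, came from DASPEI scoring (0-2 each, ten neuromasts on one side) in 5-7 dpf larvae. These had 1 h compound pre-exposure (0.010-25 μM), then 200 μM neomycin with compound for 30 min. HCmax is peak protection; HC50 interpolated between flanking concentrations only when ≥50% survive.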

Setting [1] is: 200 micromolar neomycin, read-out: Max HC Protection (HCmax, % hair cell survival).

As to `CC(C)(C)OC(=O)CCC[N+]1(CC2CCC2)CCc2c(sc(NC(=O)Nc3ccc(Cl)cc3)c2C(N)=O)C1` (centres unmarked) [Example 199, 6-[4-(tert-Butoxy)-4-oxobutyl]-3-carbamoyl-2-[3-(4-chlorophenyl)ureido]-6-(cyclobutylmethyl)-4,5,6,7-tetrahydrothieno[2,3-c]pyridin-6-ium trifluoroacetate], the EC50 was below 1 µM. Further, for the setting “maximum observed @ 0.3 μM test compound, 200 micromolar neomycin, read-out: Max HC Protection (HCmax, % hair cell survival)”, the Emax at 0.3 µM turned out to be 68%.
Take `NC(=O)c1c(NC(=O)Nc2ccc(Cl)cc2)sc2c1CCN(CC1CCCCC1)C2` [Example 16, 2-[3-(4-Chlorophenyl)ureido]-6-(cyclohexylmethyl)-4,5,6,7-tetrahydrothieno[23-c]pyridine-3-carboxamide hydrochloride]: the EC50 was in the range of 1 to 10 µM. For the same molecule, the Emax at 2.8 µM under setting [1] came out at 57%.
Consider `NC(=O)c1c(NC(=O)Nc2ccc(Cl)cc2)sc2c1CC[N+]1(CCOCC1)C2` [Example 146, 3′-Carbamoyl-2′-[3-(4-chlorophenyl)ureido]-5′,7′-dihydro-4′H-spiro[morpholine-4,6′-thieno[2,3-c]pyridin]-4-ium iodide], for which the EC50 was in the range of 1 to 10 µM. Moreover, the Emax at 25 µM under setting [1] came out at 96%.
For the molecule `CN1C2CCC1c1sc(NC(=O)Nc3ccc(Cl)cc3)c(C(N)=O)c1C2` (single isomer, unassigned; (-)) [Example 127, (−)-2-[3-(4-chlorophenyl)ureido]-9-methyl-5,6,7,8-tetrahydro-4H-5,8-epiminocyclohepta[b]thiophene-3-carboxamide hydrochloride], the EC50 lay in the range of 1 to 10 µM.
`CC1(CN2CCc3c(sc(NC(=O)Nc4ccc(Cl)cc4)c3C(N)=O)C2)CCC1` [Example 24, 2-[3-(4-Chlorophenyl)ureido]-6-[(1-methylcyclobutyl)methyl]-4,5,6,7-tetrahydrothieno[2,3-c]pyridine-3-carboxamide trifluoroacetate]: the EC50 was in the range of 1 to 10 µM. For the same molecule, the Emax at 2.8 µM under setting [1] was determined as 54%.
Take `NC(=O)c1c(NC(=O)Nc2ccc(Cl)cc2)sc2c1CCC(N1CCC1)C2` (centres unmarked) [Example 43, 6-(Azetidin-1-yl)-2-[3-(4-chlorophenyl)ureido]-4,5,6,7-tetrahydrobenzo[b]thiophene-3-carboxamide hydrochloride]: the EC50 is 1 to 10 µM. In addition, the Emax at 25 µM under setting [1] is 93%.
As for `NC(=O)c1c(NC(=O)Nc2ccc(Cl)cc2)sc2c1CC1CCC2N1CC1CCC1` (racemic) [Example 132, (+/−)-2-[3-(4-Chlorophenyl)ureido]-9-(cyclobutylmethyl)-5,6,7,8-tetrahydro-4H-5,8-epiminocyclohepta[b]thiophene-3-carboxamide hydrochloride], the EC50 was below 1 µM. Also, under setting [1], the Emax at 2.8 µM is 97%.
With `NC(=O)c1c(NC(=O)Nc2ccc(Cl)cc2)sc2c1CCN(CC1CCC1)C2` [Example 12, 2-[3-(4-Chlorophenyl)ureido]-6-(cyclobutylmethyl)-4,5,6,7-tetrahydrothieno[2,3-c]pyridine-3-carboxamide hydrochloride], the EC50 was in the range of 1 to 10 µM. For the same molecule, for the setting “maximum observed @ 8.3 μM test compound, 200 micromolar neomycin, read-out: Max HC Protection (HCmax, % hair cell survival)”, the Emax at 8.3 µM amounted to 73%.
`CCN1CCc2c(sc(NC(=O)Nc3cccc(Cl)c3Cl)c2C(N)=O)C1` [Example 74, 2-[3-(2,3-Dichlorophenyl)ureido]-6-ethyl-4,5,6,7-tetrahydrothieno[2,3-c]pyridine-3-carboxamide hydrochloride]: the EC50 was above 10 µM. For the same molecule, the Emax at 25 µM under setting [1] was 54%.
The like results for `NC(=O)c1c(NC(=O)Nc2ccc(Cl)cc2)sc2c1CCN(CCCNC(=O)c1ccccc1)C2` [Example 212, 2-{[(4-chlorophenyl)carbamoyl]amino}-6-[3-(phenylformamido)propyl]-4H,5H,6H,7H-thieno[2,3-c]pyridine-3-carboxamide] were, in that order, 1 to 10 µM and 103%.
As to `CCN1CCc2c(sc(NC(=O)Nc3ccc(Cl)cc3)c2C(=O)NC2COC2)C1` [Example 102, 2-[3-(4-Chlorophenyl)ureido]-6-ethyl-N-(oxetan-3-yl)-4,5,6,7-tetrahydrothieno[2,3-c]pyridine-3-carboxamide], the Emax at 25 µM under setting [1] came out at 22%.
As for `CCOC(=O)CCC[N+]1(C)CCc2c(sc(NC(=O)Nc3ccc(Cl)cc3)c2C(N)=O)C1` (centres unmarked) [Example 161, 3-Carbamoyl-2-[3-(4-chlorophenyl)ureido]-6-(4-ethoxy-4-oxobutyl)-6-methyl-4,5,6,7-tetrahydrothieno[2,3-c]pyridin-6-ium iodide], the EC50 was below 1 µM. The Emax at 2.8 µM under setting [1] worked out at 87%.
In the case of `CCN1CCc2c(sc(NC(=O)Nc3ccc(Cl)s3)c2C(N)=O)C1` [Example 94, 2-[3-(5-Chlorothiophen-2-yl)ureido]-6-ethyl-4,5,6,7-tetrahydrothieno[2,3-c]pyridine-3-carboxamide hydrochloride], the EC50 is above 10 µM. Besides, under setting [1], the Emax at 25 µM turned out to be 69%.
Take `NC(=O)c1c(NC(=O)Nc2ccc(Cl)cc2)sc2c1CCN(CCN1CCOCC1)C2` [Example 46, 2-[3-(4-Chlorophenyl)ureido]-6-(2-morpholinoethyl)-4,5,6,7-tetrahydrothieno[2,3-c]pyridine-3-carboxamide trifluoroacetate]: the EC50 was above 10 µM. The Emax at 25 µM under setting [1] worked out at 79%.
In the same order, the values of `NC(=O)c1c(NC(=O)Nc2ccc(I)cc2)sc2c1CCN(CCCOCc1ccccc1)C2` [Example 207] are 1 to 10 µM and 66%.
In the same order, the values of `CCN1CCc2c(sc(NC(=O)Nc3ccc(CC(=O)OC(C)(C)C)cc3)c2C(N)=O)C1` [Example 30, tert-Butyl 2-{4-[3-(3-carbamoyl-6-ethyl-4,5,6,7-tetrahydrothieno[2,3-c]pyridin-2-yl)ureido]phenyl}acetate] are 1 to 10 µM and 58%.
As for `NC(=O)c1c(NC(=O)Nc2ccc(Cl)cc2)sc2c1CCN(CCCNC(=O)CCc1cccc3ccccc13)C2` [Example 214, 2-{[(4-chlorophenyl)carbamoyl]amino}-6-{3-[3-(naphthalen-1-yl)propanamido]propyl}-4H,5H,6H,7H-thieno[2,3-c]pyridine-3-carboxamide], the EC50 was below 1 µM. In addition, the Emax at 2.8 µM under setting [1] was 95%.
For the molecule `CCN1CCc2c(sc(NC(=O)Nc3ccc4ccccc4c3)c2C(N)=O)C1` [Example 223, 6-ethyl-2-{[(naphthalen-2-yl)carbamoyl]amino}-4H,5H,6H,7H-thieno[2,3-c]pyridine-3-carboxamide], the EC50 was 1 to 10 µM. The Emax at 25 µM under setting [1] amounted to 104%.
`NC(=O)c1c(NC(=O)Nc2ccc(Cl)cc2)sc2c1CC1CCC2N1` (single isomer, unassigned; (+)) [Example 130, (+)-2-[3-(4-Chlorophenyl)ureido]-5,6,7,8-tetrahydro-4H-5,8-epiminocyclohepta[b]thiophene-3-carboxamide hydrochloride]: the Emax at 2.8 µM under setting [1] turned out to be 40%.
Take `CCN1CCc2c(sc(NC(=O)NC3CCCCC3)c2C(N)=O)C1` [Example 68, 2-(3-Cyclohexylureido)-6-ethyl-4,5,6,7-tetrahydrothieno[2,3-c]pyridine-3-carboxamide hydrochloride]: the Emax at 25 µM under setting [1] is 5%.
Consider `CC[N+]1(C)CCc2c(sc(NC(=O)Nc3ccc(Br)cc3)c2C(N)=O)C1` (centres unmarked) [Example 220, 2-{[(4-bromophenyl)carbamoyl]amino}-3-carbamoyl-6-ethyl-6-methyl-4H,5H,6H,7H-thieno[2,3-c]pyridin-6-ium], for which the EC50 was below 1 µM. For the same molecule, the Emax at 25 µM under setting [1] amounted to 98%.
